Values quoted from earlier work, collected in PMC5085262 (Chemical Science, 2016).

Conditions: no reference given

## Oc1cccc2cccnc12 [Quin, 8-hydroxyquinoline]
  pKa of the free ligand (phenolate group): ≈ 9.9
